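Growth conditions: 96-well plates. Treatment: test compound, 48 hours, 5 concentrations. Analysis: linear interpolation between bracketing concentrations; unreached endpoints set to highest concentration. Here, GI50 denotes the concentration required for 50% inhibition of growth. The concentration for full growth arrest is given as TGI.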
How the values were obtained:
Assay in all cases: inhibition of tumour cell growth, NCI panel, 48 h
COLO 205 colon = test system: COLO 205 colon
CCRF-CEM leukemia = test system: CCRF-CEM leukemia
A498 renal = test system: A498 renal
UACC-62 melanoma = test system: UACC-62 melanoma
NCI-H460 lung = test system: NCI-H460 lung
NCI-H23 lung = test system: NCI-H23 lung
HCC-2998 colon = test system: HCC-2998 colon
OVCAR-5 ovarian = test system: OVCAR-5 ovarian
HCT-15 colon = test system: HCT-15 colon

Compound	GI50 (COLO 205 colon) [µM]	TGI (COLO 205 colon) [µM]	GI50 (CCRF-CEM leukemia) [µM]	TGI (CCRF-CEM leukemia) [µM]	GI50 (A498 renal) [µM]	TGI (A498 renal) [µM]	GI50 (UACC-62 melanoma) [µM]	TGI (UACC-62 melanoma) [µM]	GI50 (NCI-H460 lung) [µM]	TGI (NCI-H460 lung) [µM]	GI50 (NCI-H23 lung) [µM]	TGI (NCI-H23 lung) [µM]	GI50 (HCC-2998 colon) [µM]	TGI (HCC-2998 colon) [µM]	GI50 (OVCAR-5 ovarian) [µM]	TGI (OVCAR-5 ovarian) [µM]	GI50 (HCT-15 colon) [µM]	TGI (HCT-15 colon) [µM]
CCCCCCCNc1nc(C(=O)OCC)ncc1-c1ccc(C(F)(F)F)cc1	26.8	88.1	29.5	> 100	16	> 100	25.2	> 100	14.7	32.7	42.2	> 100	41.5	> 100	> 100	> 100	33.2	> 100
O=C1c2ccc([N+](=O)[O-])cc2-c2c1c1ccccc1c(=O)n2CCCNCCCNCCCn1c2c(c3ccc([N+](=O)[O-])cc3c1=O)C(=O)c1ccccc1-2	1.33	6.83	1.77	5.62	2.05	8.88	1.71	4.85	2.34	14.6	1.2	3.4	3.08	9.77	3.05	11.3	3.4	14.3
COc1ccc(N2Cc3cnc(Nc4ccccc4)nc3N([C@@H]3CC[C@@H](O)C3)C2=O)cc1	2.76	> 25	5.98	> 25	0.128	1.2	2.74	> 25	3.41	> 25	8.17	> 25	18.8	> 25	5.54	> 25	1.66	> 25
CC(=O)NNc1nc(C)c(C(=O)NNC(=O)C(=O)Nc2c(C)cccc2C)s1		> 100		81.7		> 100		> 100		> 100		60.1		> 100		> 100		> 100
COc1cc2c(c(OC)c1OC)-c1ccc(N)c(=O)cc1[C@@H](NC(C)=O)CC2	0.012	0.0386	< 0.0147	> 100	0.0297		0.0379	> 100	0.0294		0.0316	> 100	0.0279		0.202	> 100	0.358	> 100
Cc1ccc(-c2cc(-c3ccco3)c(C#N)c(=O)[nH]2)cc1		> 100		> 100		> 100		> 100		> 100		> 100		> 100		> 100		> 100
Cc1c(S(C)(=O)=O)c(-c2cc(F)cc(N3CCN(c4ccc(NS(=O)(=O)c5ccc(N[C@H](CCN6CCC(C(=O)OCCCP(=O)(O)O)CC6)CSc6ccccc6)c(S(=O)(=O)C(F)(F)F)c5)cc4)CC3)c2)c(-c2ccc(Cl)cc2)n1C(C)C	> 100	> 100	0.456	> 100	> 100	> 100	> 100	> 100	> 100	> 100	> 100	> 100	2.13	> 100	> 100	> 100	> 100	> 100
CN1CCN(c2ccc(NC(=O)c3nc4ccc5[nH]ncc5c4c4c3CCCC4)cc2C(F)(F)F)CC1	0.84	1.68	1.07	3.33	> 50	> 50	0.973	1.83	0.956	1.83	1.5	6.71	1.1	2.99	1.5	8.39	0.845	1.78
COc1ccc(-c2cc(=O)c3c(C)cc(C)nc3[nH]2)cc1		42.6		43.2		> 100		46.6	40.9	> 100		> 100		> 100		> 100		> 100
CCCCCCCCCCCCCCN		> 100		> 100		> 100		> 100		> 100		> 100		> 100		> 100		> 100
COc1ccc(Nc2ncc(Br)c(NCCCNC(=O)C3CCC3)n2)cc1	10.6	30.8	4.49	98.1	12.3	27.2	17.7	36.3	8.34	31.5	16.6	62.2	21.7	58.1	10.8	40.2	14.7	62.5
O=C1C=C(NCCNC(=S)Nc2ccccc2)c2nccc3c2c1nc1ccccc13	9.18	> 100	> 100	> 100	> 100	> 100	20.6	73	29.4	> 100	31.5	> 100	17.6	> 100	> 100	> 100	34.9	> 100

Reference: PubChem BioAssay (NCI)
